Data as given in publication PMC5433008 (BMC Neuroscience, 2017).
Where no end group is shown, it is not given here.

Legend:
[1] = tested on: NMDAr containing the GluN2B subunit; conditions: cited from earlier work
[2] = tested on: NMDA-evoked currents in cortical neurons; conditions: cited from earlier work
[3] = tested on: NMDA-evoked currents in hippocampal neurons; conditions: cited from earlier work
[4] = tested on: GluN1a–GluN2B; conditions: cited from earlier work
[5] = tested on: NMDA-evoked currents in cultured rat embryonic hippocampal neurons (NMDAr)
[6] = tested on: voltage-dependent Na^+ channels; conditions: 1 µM; ref [40]; cited from earlier work
[7] = tested on: voltage-dependent Ca^+2 channels; conditions: 1 µM; ref [40]; cited from earlier work
[8] = tested on: NMDA/GluN2B; conditions: Ro 25-6981 1 µM; ref [40]; cited from earlier work

Compound	selectivity for NMDAr containing the GluN2B subunit [1]	IC50 [2] [nM]	recovery of NMDA-evoked current after washout [2]	reversibility [2]	IC50 [3] [nM]	IC50 [4] [nM]	recovery of NMDA-evoked currents after washout [4]	block of NMDA-evoked currents [5]	reversibility of block [5]	use-dependence of block [5]	block of NMDA-evoked currents, percent (GluN2B blocker) [5] [%]	effect on voltage-dependent Na^+ channels [6]	effect on voltage-dependent Ca^+2 channels [7]	1 µM relative to the concentration producing 50% inhibition of NMDA/GluN2B-mediated currents [8] [fold]
conantokin-G: 17 amino acid peptide (MW 2264.2 Da), cone snail toxin selective for NMDAr containing GluN2B (GEEELQENQELIREKSN; ends and bridges not checked; UniProt P07231 81-97, looked up)	selective for NMDAr containing the GluN2B subunit	480	about 10%	very slow and incomplete reversibility	480	100	about 80%	–	–	–	–	–	–	–
C[C@]12N[C@H](Cc3ccccc31)c1ccccc12 [(+)MK-801, Dizocilpine]	–	–	–	–	–	–	–	blocked the NMDA-evoked currents	irreversible	increased with exposures to the blocker	–	–	–	–
C[C@@H](CN1CCC(Cc2ccccc2)CC1)[C@@H](O)c1ccc(O)cc1 [Ro 25-6981]	–	–	–	–	–	–	–	–	no reversibility following 4 min of washout	use-dependent	70	minimal or no effects	minimal or no effects	100
